Experimental data published in patent publication US9561276B2, “Method of treating onychomycosis” (DUSA PHARMACEUTICALS, INC., priority 2012, dated 2017).
Counter-ions that a name gives are not always drawn.

Key:
[1] = test system: onychomycosis of the toenail; test: ALA-based PDT of onychomycosis with 10 day delay before red light (Example 1)
Method: A 5 percent ALA solution was prepared by dilution of 20 percent ALA Topical Solution (Levulan® Kerastick® (aminolevulinic acid HCl) for Topical Solution, 20%). The ALA solution was then applied to a healthy volunteer suffering from mild to moderate onychomycosis involving the hallux (proximal or big toe) toenail and the second toenail of the left foot. The ALA solution was applied liberally to the nail surface and the periungual skin areas. The entire toe was wrapped in an occlusive dressing (Tegaderm®) for 12 hours. Twenty-four hours post ALA application, the treated area was examined for porphryin fluorescence using a long wave UV light (Wood's Light) as an excitation source.
The subject was instructed to avoid light exposure to the treated toes. Fluorescence evaluation was performed again 10 days post ALA application.
The subject was then treated with 100 Joules/cm^2 of red light using the Sciencetech 7500 illuminator, causing an activation reaction.
The subject was again instructed to avoid light exposure to the treated toes. Follow up evaluations were performed 5 and 20 days post light treatment (15 and 30 days post ALA application).

mouse skin = details: cited from earlier work
acne lesions = details: in vivo; cited from earlier work
[2] = test system: onychomycosis of the toenail; details: in vivo; cited from earlier work
onychomycosis = details: cited from earlier work
[3] = 100 Joules/cm^2 red light 10 days post ALA

SMILES | sensation during light treatment, proximal toe [1, 3] | sensation during light treatment, second toe [1, 3] | local reaction (edema, redness), proximal toe ([1]; 5 days post light treatment) | local reaction (redness), second toe ([1]; 5 days post light treatment) | appearance of treated toes ([1]; 20 days after exposure to the activating red light) | adverse effects associated with the treatment ([1]; noted by subject) | time for protoporphyrin levels to return to near pretreatment baseline (mouse skin) | time to peak protoporphyrin IX concentration (mouse skin) | time until ability of light to specifically excite protoporphyrin IX disappeared (acne lesions) [h] | local adverse reaction [2] | adverse events unrelated to the treatment site (onychomycosis; in vivo, po) | complete clearance (onychomycosis; oral, complete course of treatment (every day for three months))
NCC(=O)CCC(=O)O [ALA, aminolevulinic acid] | only mild tingling and slight stinging | little to no sensation | only slight edema in the area around the nail plate, and mild redness of the nail bed itself | only slight redness in the nail bed | both treated toes appeared normal | no adverse effects | about 18 hours | about six | ≤ 24 | redness and edema (swelling) | – | –
CN(C/C=C/C#CC(C)(C)C)Cc1cccc2ccccc12 [terbinafine, terbinafine hydrochloride] | – | – | – | – | – | – | – | – | – | – | gastrointestinal disorders, rashes, disruption of the sense of taste, and liver disorders | only a minority of cases
